Read-outs that look alike come from different tables or passages of the source.
What was measured:
[1] = tested on: memory impairment induced by scopolamine; assay: Step-down passive avoidance test, impairment caused by scopolamine in mice; type: in vivo, Male ICR mice; settings: for Number of errors: during 5 min; for Number of errors / Latency: scopolamine 1 mg/kg i.p.; for effect on scopolamine-induced impairment of passive avoidance (step-down latency, number of errors): result in words
Experimental: Male ICR mice, 24-28 g, were used. The mice were housed for 2 days period of habituation before experiment. Mice were randomized into groups (n=20).
The mice were administered by gavage of physiological saline, or drugs at different doses, respectively in the negative control, scopolamine group, and test drugs groups. Twice daily for 2 days.
At D3, 30 min after administration of test drugs, scopolamine (1 mg/kg i.p) was administered, except for the control group.
30 min later, each mouse was individually placed onto the safety platform in the box of step-down apparatus. When the mouse stepped down and touched the grid floor, it was given an electric shock with a tension of 36V, and jumped back onto the rubber platform. Each animal was trained for 5 min and returned to the home cage.
24 hours after the learning trial, the animal was again placed on the platform and the step-down latency and the number of step-down events (number of errors) during 5 min were recorded.

[2] = tested on: cycloheximide-induced memory deficit; assay: Step-down passive avoidance test, impairment induced by cycloheximide in mice; type: in vivo; settings: for Improvement (%): step-down latency; for Improvement (%) / Latency / No. of errors: cycloheximide 120 mg/kg i.p.; for Latency / No. of errors: step-down test; for No. of errors: during 5 min
Experimental: The randomization and the administration of drugs are as before. The mice were administered with cycloheximide (120 mg/kg i.p), except for the control group. 30 min later, each mouse was individually placed onto the platform of the step-down apparatus, and trained for 5 min. The retention test started 24 hours later, the step-down latency and the number of step-down events (number of errors) during 5 min were recorded.

[3] = tested on: Aβ(1-42)-induced memory impairment; assay: Step-down test, Aβ(1-42)-induced impairment (ICV injection) in mice; type: in vivo
Experimental: (§1) Aβ(1-42) (10 μg/mouse) was administered via ICV injection. The sham group was given same volumn of Ringer's solution. One week later, The mice with injection of Aβ(1-42) were randomly divided into 3 groups, and were administered by oral with saline, CE (5 mg/kg) or W6 (1 mg/kg), respectively. Two weeks later, step-down test and water-maze test were performed for evaluating the capacity of learning and memory of mice.

[4] = tested on: Aβ(1-42)-induced memory impairment; assay: Water-maze test, Aβ(1-42)-induced impairment of learning and memory in mice; type: in vivo
Experimental: as §1
(§2) Water-maze test: Each mouse was first placed on the stairs, then released into the water from position 1 and allowed 120 sec to find the stairs. The mouse received 2 trials per day for 3 days. The starting location varied from position 1 to position 2 and position 3 for the next 2 day. The distance and the dead end increased every day. In D4, the mouse was put into water from position 3, the time to escape from water to the stairs and the number of entering the dead ends (number of errors) were measured. This method is used to evaluate the spatial performance and learning and memory performance of animal.

[5] = tested on: learning and memory performance impairment caused by permanent occlusion of carotid arteries; assay: Step-down test, permanent occlusion of 2 carotid arteries (2-VO) in mice; type: in vivo
Experimental: (§3) At surgery, under pentobarbital anaesthesia (40 mg/kg i.p.), the common carotid arteries of mice were exposed and occluded with thread permanently and the surrounding skin sutured. Sham-operated controls had their carotids exposed but not occluded. After 1 week, the survival mice with occluded carotids were randomly divided into 3 groups. 2 groups were repeated administered with CE (5 mg/kg, po) or W6 (1 mg/kg, po) daily. Four weeks after surgery, mice were trained and tested in a water maze and step-down apparatus.

[6] = tested on: learning and memory performance impairment caused by permanent occlusion of carotid arteries; assay: Water-maze test, permanent occlusion of 2 carotid arteries (2-VO) in mice; type: in vivo; settings: 2-VO mice, four weeks after surgery, dose 1 mg/kg po daily
Description: as §2, §3

KM mice = assay: Acute toxicity study in mice; type: in vivo; settings: 0.5 g/kg i.p. or p.o.
Description: KM mice were used for this experiment. 10 male and 10 female mice were included in each group. CE (5 g/kg) or W6-W9 (0.5 g/kg) were given by oral or by i.p. The animals were observed carefully and their body weight were checked every 3 days within 2 weeks.

[7] = biological target: Acetylcholinesterase (AchE) (Rattus norvegicus, UniProt P37136); settings: for inhibition (%): AchE activity, rat forebrain; for AchE activity: rat forebrain homogenate
Sequence of Acetylcholinesterase (AchE) (P37136 32-614): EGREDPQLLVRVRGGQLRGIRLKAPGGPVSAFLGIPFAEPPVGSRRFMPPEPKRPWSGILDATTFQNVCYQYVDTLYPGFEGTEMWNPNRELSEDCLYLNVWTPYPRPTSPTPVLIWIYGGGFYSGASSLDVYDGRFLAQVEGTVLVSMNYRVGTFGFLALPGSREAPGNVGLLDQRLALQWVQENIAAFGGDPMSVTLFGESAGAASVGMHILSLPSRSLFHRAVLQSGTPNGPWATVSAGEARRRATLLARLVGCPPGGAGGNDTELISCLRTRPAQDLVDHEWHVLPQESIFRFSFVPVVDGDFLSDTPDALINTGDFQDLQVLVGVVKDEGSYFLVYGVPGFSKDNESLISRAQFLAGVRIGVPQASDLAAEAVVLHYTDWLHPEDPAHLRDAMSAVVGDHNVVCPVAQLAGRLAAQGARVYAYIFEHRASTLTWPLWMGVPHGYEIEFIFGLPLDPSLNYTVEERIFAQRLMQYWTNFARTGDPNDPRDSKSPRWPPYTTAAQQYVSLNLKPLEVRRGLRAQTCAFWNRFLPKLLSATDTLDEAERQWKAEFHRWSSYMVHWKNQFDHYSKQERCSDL
Experimental: The rats were fasting over night and given a single oral dose of drugs. 1 hour later, the rats were decapitated, the forebrains were rapidly removed under ice bath, weighed and homogenized in 0.9% saline using a ultrasonic homogenizer to obtain 10% brain homogenate. The homogenate was centrifuged (6000 rpm) for 20 mins at low temperature, and retained the supernatant. Then the AchE activity was measured with an assay kit.

[8] = step-down test, Aβ(1-42) 10 μg/mouse ICV, mice, dose 1 mg/kg oral, two weeks
[9] = step-down test, 2-VO mice, four weeks after surgery, dose 1 mg/kg po daily
[10] = 1 hour after single oral dose 5 mg/kg
[11] = 1 hour after single oral dose 20 mg/kg

CC(C)CC(O[C@@H]1O[C@H](CO)[C@@H](O)[C@H](O)[C@H]1O)(C(=O)OCc1ccc(O[C@@H]2O[C@H](CO)[C@@H](O)[C@H](O)[C@H]2O)cc1)C(O)C(=O)OCc1ccc(O[C@@H]2O[C@H](CO)[C@@H](O)[C@H](O)[C@H]2O)cc1 (stereo partly drawn) [Compound W6, 1,4-bis(β-D-glucopyranosyloxybenzyl)-2-β-D-glucopyranosyl-2-isobutyltartrate]
Number of errors ([1]; dose 0.03 mg/kg by gavage): 0.2 ± 0.1
Number of errors ([1]; dose 0.3 mg/kg by gavage): 0.4 ± 0.2
Number of errors ([1]; dose 3 mg/kg by gavage): 0.3 ± 0.1
effect on scopolamine-induced impairment of passive avoidance (step-down latency, number of errors) [1]: attenuated the scopolamine-induced impairment of passive avoidance behaviors
Latency ([1]; dose 0.03 mg/kg by gavage): 283 ± 38 s
Latency ([1]; dose 0.3 mg/kg by gavage): 259 ± 34 s
Latency ([1]; dose 3 mg/kg by gavage): 258 ± 17 s
effect on cycloheximide-induced reduction of latency and number of errors ([2]; passive avoidance, result in words): significantly reversed the cycloheximide-induced reduction of step-down latency
Improvement (%) ([2]; dose 1.25 mg/kg): 57%
Improvement (%) ([2]; dose 2.5 mg/kg): 65%
Improvement (%) ([2]; dose 5 mg/kg): 38%
Improvement (%) ([2]; dose 10 mg/kg): 61%
Latency ([2]; dose 1.25 mg/kg): 211 ± 31 s
Latency ([2]; dose 2.5 mg/kg): 223 ± 24 s
Latency ([2]; dose 5 mg/kg): 182 ± 33 s
Latency ([2]; dose 10 mg/kg): 216 ± 29 s
No. of errors ([2]; dose 1.25 mg/kg): 0.6 ± 1.2
No. of errors ([2]; dose 2.5 mg/kg): 0.7 ± 0.9
No. of errors ([2]; dose 5 mg/kg): 0.4 ± 0.5
No. of errors ([2]; dose 10 mg/kg): 0.3 ± 0.5
effect on Aβ(1-42)-induced impairment in passive avoidance performance ([3]; mice or rats, treatment for 2 weeks, result in words): significantly blocked
Latency [3, 8]: 110 ± 37 s
Number of errors [3, 8]: 0.9 ± 0.2
effect on Aβ(1-42)-induced decrease in spatial working memory ([4]; treatment for 2 weeks, water maze, result in words): significantly improved
Number of errors ([4]; water-maze test (entering dead ends), Aβ(1-42) 10 μg/mouse ICV, mice, dose 1 mg/kg oral, two weeks): 3.1 ± 0.8
Escape Latency ([4]; water-maze test, Aβ(1-42) 10 μg/mouse ICV, mice, dose 1 mg/kg oral, two weeks): 46 ± 11 s
effect on deficits of learning and memory caused by cerebral hypoperfusion ([5]; mice and rats, long term treatment, step-down testing and water-maze testing, result in words): significantly alleviated these changes
Latency [5, 9]: 253 ± 31 s
Number of errors [5, 9]: 0.2 ± 0.1
Escape Latency [6]: 33 ± 19 s
Number of errors [6]: 5.4 ± 1.4
acute toxicity (animal death and body weight) (KM mice): The result is the same
inhibition (%) [7, 10]: 0%
inhibition (%) [7, 11]: 0%
AchE activity [7, 10]: 0.80 ± 0.16
AchE activity [7, 11]: 0.72 ± 0.16
inhibition on activity of AchE ([7]; single dose to rats): no inhibition

CC(C)CC(O)(C(=O)OCc1ccc(O[C@@H]2O[C@H](CO)[C@@H](O)[C@H](O)[C@H]2O)cc1)C(O)C(=O)OCc1ccc(O[C@@H]2O[C@H](CO)[C@@H](O)[C@H](O)[C@H]2O)cc1 (stereo partly drawn) [Compound W7, 1,4-bis(β-D-glucopyranosyloxybenzyl)-2-isobutyltartrate]
Number of errors ([1]; dose 0.25 mg/kg by gavage): 0.4 ± 0.7
Number of errors ([1]; dose 1 mg/kg by gavage): 0.2 ± 0.4
effect on scopolamine-induced impairment of passive avoidance (step-down latency, number of errors) [1]: attenuated the scopolamine-induced impairment of passive avoidance behaviors
Latency ([1]; dose 0.25 mg/kg by gavage): 205 ± 142 s
Latency ([1]; dose 1 mg/kg by gavage): 237 ± 125 s
acute toxicity (animal death and body weight) (KM mice): The result is the same

CC(C)CC(CC(=O)OCc1ccc(O[C@@H]2O[C@H](CO)[C@@H](O)[C@H](O)[C@H]2O)cc1)(O[C@@H]1O[C@H](CO)[C@@H](O)[C@H](O)[C@H]1O)C(=O)OCc1ccc(O[C@@H]2O[C@H](CO)[C@@H](O)[C@H](O)[C@H]2O)cc1 (stereo partly drawn) [Compound W8, 1,4-bis(β-D-glucopyranosyloxybenzyl)-2-β-D-glucopyranosyl-2-isobutylmalate]
Number of errors ([1]; dose 0.25 mg/kg by gavage): 0.7 ± 0.9
Number of errors ([1]; dose 1 mg/kg by gavage): 0.3 ± 0.5
effect on scopolamine-induced impairment of passive avoidance (step-down latency, number of errors) [1]: attenuated the scopolamine-induced impairment of passive avoidance behaviors
Latency ([1]; dose 0.25 mg/kg by gavage): 197 ± 144 s
Latency ([1]; dose 1 mg/kg by gavage): 218 ± 127 s
acute toxicity (animal death and body weight) (KM mice): The result is the same

CC(C)CC(O)(CC(=O)OCc1ccc(O[C@@H]2O[C@H](CO)[C@@H](O)[C@H](O)[C@H]2O)cc1)C(=O)OCc1ccc(O[C@@H]2O[C@H](CO)[C@@H](O)[C@H](O)[C@H]2O)cc1 (stereo partly drawn) [Compound W9, 1,4-bis(β-D-glucopyranosyloxybenzyl)-2-hydroxy-2-isobutylmalate]
Number of errors ([1]; dose 0.25 mg/kg by gavage): 0.8 ± 0.7
Number of errors ([1]; dose 1 mg/kg by gavage): 0.4 ± 0.5
effect on scopolamine-induced impairment of passive avoidance (step-down latency, number of errors) [1]: attenuated the scopolamine-induced impairment of passive avoidance behaviors
Latency ([1]; dose 0.25 mg/kg by gavage): 140 ± 129 s
Latency ([1]; dose 1 mg/kg by gavage): 210 ± 134 s
acute toxicity (animal death and body weight) (KM mice): The result is the same
